According to patent US3985764A, “Production of fused oxazoline azetidinones” (Queen's University, priority 1974, dated 1976):

Tested on: S. lutea
Experiment: antibacterial activity vs. S. lutea (plate assay)
Assay type: cell-based
Settings: versus S. lutea

## CC1(C)O[C@@H]2[C@H](N3C(=O)c4ccccc4C3=O)C(=O)N2[C@H]1C(=O)O [6-phthalimido oxapenicillin]
  antibacterial activity relative to phthalimidopenicillin: one-tenth the level of phthalimidopenicillin
